In BindingDB's records for doi:10.7270/Q29K48M5 (University of Pittsburgh, 2007):
pIC50: −log10 of the molar value.

molecular target: T1, M-phase inducer phosphatase 2 (Homo sapiens, UniProt P30305); test: inhibition of Cdc25B phosphatase activity – biochemical, 25 mM DTT, probe assessment, dose response (AID 649)
T1 sequence (P30305 whole entry): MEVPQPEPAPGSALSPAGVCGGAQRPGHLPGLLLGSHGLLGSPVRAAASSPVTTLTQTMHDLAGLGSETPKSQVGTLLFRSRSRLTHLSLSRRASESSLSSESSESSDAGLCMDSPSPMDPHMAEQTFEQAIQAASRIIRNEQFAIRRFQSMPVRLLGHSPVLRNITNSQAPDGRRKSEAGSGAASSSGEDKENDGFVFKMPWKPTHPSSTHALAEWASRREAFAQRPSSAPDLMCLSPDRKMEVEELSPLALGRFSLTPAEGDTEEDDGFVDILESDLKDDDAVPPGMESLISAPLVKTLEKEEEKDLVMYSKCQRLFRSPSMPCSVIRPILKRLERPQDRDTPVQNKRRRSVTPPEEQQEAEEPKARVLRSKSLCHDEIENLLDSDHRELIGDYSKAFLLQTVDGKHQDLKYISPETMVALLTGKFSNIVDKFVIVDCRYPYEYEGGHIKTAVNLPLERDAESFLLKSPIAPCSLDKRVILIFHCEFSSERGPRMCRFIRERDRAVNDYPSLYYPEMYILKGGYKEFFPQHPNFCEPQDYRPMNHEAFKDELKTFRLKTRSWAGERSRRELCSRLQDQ

Compound | pIC50
O=C1Cc2ccccc2C(=O)N1CCc1ccccc1 [2-(2-phenylethyl)-4H-isoquinoline-1,3-dione] | < 4.30
COc1cccc2c(C)c(C(=O)O)[nH]c12 | 4.96
Nc1cccc2cnccc12 [isoquinolin-5-amine] | < 4.30
COc1ccc(Br)cc1C=c1sc2nc(-c3ccco3)nn2c1=O [5-[(5-bromanyl-2-methoxy-phenyl)methylidene]-2-(furan-2-yl)-[1,3]thiazolo[3,2-b][1,2,4]triazol-6-one] | 4.83
O=C(Nc1ccc2nc(-c3ccco3)c(-c3ccco3)nc2c1)N1CCCCCC1 | 4.40
CCn1nc(-c2ccccc2)nc2c(=O)n(C)c(=O)nc1-2 [1-Ethyl-6-methyl-3-phenyl-1H-pyrimido[5,4-e][1,2,4]triazine-5,7-dione] | 4.68
Cc1ccc2c(c1C)NC(C(=O)O)C1CC=CC21 (stereo not drawn) | 4.75
[O-]/[N+](=C\c1ccncc1)c1ccccc1 | < 4.30
Cc1ccccc1Nc1cc2ccccc2c(O)n1 [3-[(2-methylphenyl)amino]-2H-isoquinolin-1-one] | 4.37
Cn1ncnc2c(=O)n(C)c(=O)nc1-2 | 4.46
CCn1nc(-c2cccs2)nc2c(=O)n(C)c(=O)nc1-2 [1-ethyl-6-methyl-3-thiophen-2-yl-pyrimido[5,4-e][1,2,4]triazine-5,7-dione] | 4.76
c1ccc(CSc2nnc(-c3ccco3)c(-c3ccco3)n2)cc1 [MLS-0029114.0001] | < 4.30
[O-]/[N+](=C\c1ccc(OC(F)F)cc1)c1ccccc1 [1-[4-(difluoromethoxy)phenyl]-N-phenylmethanimine oxide] | < 4.30
O=C(O)C1Nc2c(O)cccc2C2C=CCC12 (stereo not drawn) | 4.89
O=C1C=Cc2ccccc2C1=O [1,2-dihydronaphthalene-1,2-dione] | < 4.30
N#Cc1c(N)sc(=S)c2c1CCN(Cc1ccccc1)C2 [3-Amino-7-benzyl-1-thioxo-5,6,7,8-tetrahydro-1H-thiopyrano[3,4-c]pyridine-4-carbonitrile] | 4.31
O=C(NC1(O)C(=O)c2ccccc2C1=O)c1ccccc1 [N-(2-hydroxy-1,3-dioxo-2-indenyl)benzamide] | < 4.30
CC(=O)Nc1cc(OC(C)=O)c2nonc2c1OC(C)=O [Acetic acid 7-acetoxy-5-acetylamino-benzo[1,2,5]oxadiazol-4-yl ester] | < 4.30
Cc1ccc2c(c1)C1C=CCC1C(C(=O)O)N2 (stereo not drawn) [MLS-0067149.0001] | 4.94

Next, values leading:

pIC50 | Compound
< 4.30 | Cc1c(N=c2c(=O)c3ccccc3c2=O)c(=O)n(-c2ccccc2)n1C [MLS000105950]
4.32 | Oc1nc(Nc2ccccc2)cc2ccccc12 [MLS000043701]
< 4.30 | COc1ccc2noc3c2c1C(=O)c1ccccc1-3 [MLS000106874]
4.93 | COc1cccc2c1NC(C(=O)O)C1CC=CC21 (stereo not drawn) [SMR000009698]
< 4.30 | CCOc1ccc2noc3c2c1C(=O)c1ccccc1-3 [MLS000106837]
< 4.30 | N#Cc1c(N2CCCC2)nc(N)c2c(N)nc(N3CCCC3)cc12 [SMR000061605]
< 4.30 | CCOC(=O)C(C(=O)OCC)c1cc(Br)c2noc3c2c1C(=O)c1ccccc1-3 [MLS000038842]
5.13 | O=C(OC1CCCCC1)c1ccc2c(c1)C1C=CCC1C(C(=O)O)N2 (stereo not drawn) [SMR000019385]
< 4.30 | O=C1C=Cc2ccccc2/C1=C/NC12CN3CCN(CN(C3)C1)C2 [MLS000071484]
